How the values were obtained:
Assay type in all cases: cell-based, human
NAG-1 [1] = assay: Northern blot analysis of NAG-1 mRNA expression in HCT-116 cells; conditions: for NAG-1 Induction (mRNA) Fold: HCT-116, 24 hr in absence of serum, relative NAG-1 mRNA over vehicle control (1.0), tested over the concentration range listed; for NAG-1 expression induction: HCT-116, at any concentration tested
Description: Upon reaching 60–80% confluence in 10 cm plates, the cells were treated at indicated concentrations and times with either different NSAIDs or PPARγ ligands in the absence of serum. Total RNAs were isolated using TRIzol reagent (Life Technologies) according to the manufacturer's protocol. For Northern blot analysis, […] of total RNA was denatured at 55° C. for 15 min and separated in a 1.2% agarose gel containing 2.2 M formaldehyde, and transferred to Hybond-N membrane ([…]). After fixing the membrane by UV, blots were prehybridized in hybridization solution (Rapid-hyb buffer, […]) for 1 hr at 65° C. followed by hybridization with cDNA labeled with [α-^32P]dCTP by random primer extension (DECAprimeII kit, Ambion). The probes used were either full-length NAG-1 fragment or PTGFB clone (generously provided by Dr. Bento-Soar of the University of Iowa). After 4 hr incubation at 65° C., the blots were washed once with 2×SSC/0.1% SDS at RT and twice with 0.1×SSC/0.1% SDS at 65° C. Messenger RNA abundance Was estimated by intensities of the hybridization bands of autoradiographs using Scion Image (Scion). Equivalent loading of RNA samples was confirmed by hybridizing the same blot with a ^32P-labeled b-actin probe which recognizes RNA of approximately 2 kb.
To determine whether other NSAIDs increased apoptosis and NAG-1 expression, tests were conducted to determine whether variants of NSAIDs induced NAG-1 gene expression and NSAID-induced apoptosis. Aspirin, ibuprofen, indomethacin, and sulindac sulfide were selected since they are known COX inhibitors. […] HCT-116 cells were treated with different NSAIDs (vehicle, 0.2% DMSO; aspirin, 10 mM; ibuprofen, 1 mM; sodium salicylate, 5 mM; sulindac sulfide, 50 μM; sulindac, 40 μM; acetaminophen, 100 μM) for 24 hr in the absence of serum. Northern analysis was performed using NAG-1 and β-actin as probes. Total RNAs were isolated from NSAID-treated HCT-116 cells after 24 hr treatment and Northern blot was performed using NAG-1 cDNA as a probe (data not shown). […] Each of the doses were as follows: aspirin (1, 5, 10 mM); ibuprofen (100, 500, 1000 μM); salicylate (1, 2.5, 5 mM); sulindac sulfide (1, 10, 50 μM); sulindac (10, 20, 40 μM); acetaminophen (10, 50, 100 μM). After 48 hr treatment with NSAIDs in the presence of serum, cells were harvested and assayed as described in FIG. 1C. Apoptosis detected by PI staining was measured by FACS, as known in the art (FIG. 2A; HCT-116 cells were treated with different NSAIDs (vehicle, 0.2% DMSO; Aspirin, 10 mM; Ibuprofen, 1 mM; Sodium Salicylate, 5 mM; Sulindac Sulfide, 50 μM; Sulindac, 40 μM; Acetaminophen, 100 μM) for 24 hr in the absence of serum. Northern analysis was performed using NAG-1 and β-actin as probes. The open bars represent the relative expression of NAG-1 mRNA over the control (vehicle). The hatched bars represent the relative apoptosis ratio over vehicle treatment by PI staining methods. N=3±S.D.).
(§1) In the Table below, HCT-116 cells were treated with different NSAIDs (vehicle, 0.2% DMSO) for 24 hr in the absence of serum. Northern analysis was performed using NAG-1 and β-actin as probes. The data represent relative expression of NAG-1 mRNA over the control (1.0). Each NSAID was tested at 3 different concentrations and maximally effective concentration used for apoptosis determination. Apoptosis ratio by PI staining was measured by FACS. After 48 hr treatment with NSAIDs in the presence of serum, cells were harvested and assayed. The data represent relative apoptosis ratio over vehicle treatment by PI staining methods. TACS™ Annexin V-FITC kit was also used to confirm apoptosis.

HCT-116 cells = assay: Apoptosis and cell cycle by PI staining / FACS in HCT-116 cells; conditions: for Apoptosis (PI Staining), relative apoptosis ratio over vehicle: HCT-116, 48 hr in presence of serum, maximally effective concentration, FACS
Description: To determine whether NAG-1 gene expression is associated with NSAID-induced apoptosis or altered cell cycle kinetics, flow cytometric analysis of the distribution of cells at various stages of the cell cycle was performed. Apoptosis and cell cycle kinetics of INDO-treated HCT-116 cells were measured at different time points. HCT-116 cells were treated with INDO, stained with PI, and analyzed by flow cytometry. Seven thousand five hundred cells were examined by flow cytometry by gating on an area versus width dot plot to exclude cell debris and cell aggregates. Apoptosis is represented by the fold increase in sub-G1 population over 0 hr treatment.
The DNA content for NSAIDs, PPARγ ligand, and vehicle treated HCT-116 cells was determined by FACS. Cells were plated at a density of 4×10^5 cells/well in 2 ml of medium in 6 well plates, incubated for 16 h, and then treated with NSAIDs or TGZ in the presence of serum. After treatment, the cells were harvested, washed with PBS, fixed by the slow addition of cold 70% ethanol to a total of 1 ml, and stored overnight at 4° C. The fixed cells were pelleted, washed once with PBS, and stained in 1 ml of 20 μg/ml of propidium iodide (PI), 1 mg/ml RNase in PBS for 20 min. Seven thousand five hundred cells were examined by flow cytometry using Becton Dickinson FACSort equipped with CellQuest software, by gating on an area versus width dot plot to exclude cell debris and cell aggregates. Each cell cycle distribution was analyzed by the McCycle program using one cell cycle parameter. Apoptosis was measured based on the level of sub-diploid DNA contained in cells following treatment with NSAIDs or TGZ using CellQuest software.
as §1, with “Northern” for “In the Table below, HCT-116 cells were treated with different NSAIDs (vehicle, 0.2% DMSO) for 24 hr in the absence of serum. Northern”, “After 48 hr treatment with NSAIDs in the presence of serum, cells were harvested and assayed.” left out

NAG-1 promoter = NAG-1 promoter (pNAG2021) luciferase reporter assay in transiently transfected HCT-116 cells; conditions: pNAG2021 in HCT-116, 24 hr; TGZ 10 μM, sulindac 40 μM, acetaminophen 100 μM, other NSAIDs; versus vehicle
NAG-1 [2] = assay: Northern blot NAG-1 induction in A549 lung carcinoma cells; conditions: 10 mM, 24 hr
Description: (§2) NSAID-induced apoptosis is not restricted to colorectal cells, as NSAIDs can induce apoptosis in breast, lung, leukemia, and prostate cell lines. To test for the induction of NAG-1 by NSAIDs in different cell lines, A549 lung epithelial cells, MCF-7 mammary cells, PC-3 prostate cancer cells, and U937 leukemia cell lines were treated with several concentrations of INDO and aspirin. Then, as described above, Northern blot analysis was performed. […] Quiescent cells were grown for 24 hr in the presence of indicated NSAIDs. Total RNAs were isolated and subjected to Northern analysis using NAG-1 and β-actin as probes. The blots contained 10 μg of total RNA from INDO- or Aspirin (Asp)-treated cells with indicated doses. “V” indicates total RNAs from vehicle (0.2% DMSO) treated cells. The results shown are representative of those obtained in two experiments.

NAG-1 [3] = assay: Northern blot NAG-1 induction in MCF-7 breast carcinoma cells; conditions: MCF-7 cells, 10 mM, 24 hr
Description: as §2

NAG-1 [4] = assay: Northern blot NAG-1 induction in U937 leukemia cells; conditions: 24 hr
Description: as §2

NAG-1 [5] = assay: Northern blot NAG-1 induction in PC-3 prostate cells; conditions: PC-3 cells, 10 mM, 24 hr
Description: as §2

NAG-1 [6] = assay: Western blot analysis of secreted NAG-1 protein from HCT-116 cells; conditions: HCT-116, 5 μM TGZ
Description: The level of secreted NAG-1 was evaluated using Western blot analysis with anti-human-NAG-1 antibody (generously provided by Dr. Paralkar of Pfizer). HCT-116 cells were grown to 60–80% confluency in 10 cm plates followed by 48 hr treatment in the absence of serum with either NSAIDs or TGZ. The media were harvested and concentrated approximately 15-fold using Centriprep 10 concentrators (Amicon). Proteins (30 μg) were separated by 15% SDS-PAGE and transferred for 1 hr onto nitrocellulose membrane (Schleicher & Schuell). The blots were blocked for 1 hr with 5% skim milk in TBS/Tween 0.05%, and probed with anti-NAG-1 antibody (1 μg/ml in TBS-0.2%-Tween20) at […] overnight. After washing, the blots were treated with horseradish peroxidase-conjugated secondary antibody for 1 hr and washed several times. The signal was detected by enhanced chemiluminescence system (AMERSHAM) and autoradiography.
HCT-116 cells were treated with 100 μM INDO in the absence of serum for various times. In FIG. 1B, left panel. 10 μg of total RNA was loaded in each lane. Northern blotting was performed using the NAG-1 probe and re-probed with β-actin probe. The hybridization signals were quantitated using Scion Image software (Scion). Levels of the 1.3 kb NAG-1 transcript were normalized to the levels of β-actin transcripts and represented relative to 0 hr treatment. […] The signal was detected by ECL reagent (AMERSHAM).

SMILES: CCCCC/C=C/C=C1/C(=O)C=C[C@@H]1C/C=C\CCCC(=O)O [15d-PGJ2, 15-deoxy-Δ^12,14-prostaglandin J2]
- Induction of NAG-1 gene expression (NAG-1 [1]; HCT-116, 1 μM): 3 fold

SMILES: CC(=O)Nc1ccc(O)cc1 [Acetaminophen]
- NAG-1 Induction (mRNA) Fold (NAG-1 [1]): 0.9 Fold
- NAG-1 expression induction (NAG-1 [1]): did not induce NAG-1 expression
- Apoptosis (PI Staining), relative apoptosis ratio over vehicle (HCT-116 cells): 0.9 ± 0.153
- Induction of luciferase reporter activity (2021 bp NAG-1 promoter) (NAG-1 promoter): did not increase luciferase activity

SMILES: CC(=O)Oc1ccccc1C(=O)O [Aspirin]
- NAG-1 Induction (mRNA) Fold (NAG-1 [1]): 3.5 Fold
- Apoptosis (PI Staining), relative apoptosis ratio over vehicle (HCT-116 cells): 3.5 ± 0.451
- NAG-1 induction (NAG-1 [2]): high NAG-1 induction
- NAG-1 induction (NAG-1 [3]): high NAG-1 induction
- NAG-1 expression (NAG-1 [4]; 5 mM): significantly increased
- NAG-1 induction (NAG-1 [4]; 10 mM): high NAG-1 induction
- NAG-1 induction (NAG-1 [5]): high NAG-1 induction

SMILES: Cc1ccc(-c2cc(C(F)(F)F)nn2-c2ccc(S(N)(=O)=O)cc2)cc1 [Celecoxib]
- NAG-1 Induction (mRNA) Fold (NAG-1 [1]): 1.0 Fold
- Apoptosis (PI Staining), relative apoptosis ratio over vehicle (HCT-116 cells): 0.722 ± 0.098

SMILES: CC1(C)OC(=O)C(c2cccc(F)c2)=C1c1ccc(S(C)(=O)=O)cc1 [DFU]
- NAG-1 Induction (mRNA) Fold (NAG-1 [1]): 1.0 Fold
- Apoptosis (PI Staining), relative apoptosis ratio over vehicle (HCT-116 cells): 0.54 ± 0.091

SMILES: O=C(O)Cc1ccccc1Nc1c(Cl)cccc1Cl [Diclofenac]
- NAG-1 Induction (mRNA) Fold (NAG-1 [1]): 3.7 Fold
- Apoptosis (PI Staining), relative apoptosis ratio over vehicle (HCT-116 cells): 4.0 ± 0.315

SMILES: CC(C)Cc1ccc(C(C)C(=O)O)cc1 (stereo not shown) [Ibuprofen]
- NAG-1 Induction (mRNA) Fold (NAG-1 [1]): 4.5 Fold
- Apoptosis (PI Staining), relative apoptosis ratio over vehicle (HCT-116 cells): 4.3 ± 0.666

SMILES: CS(=O)(=O)Nc1ccc([N+](=O)[O-])cc1OC1CCCCC1 [NS-398]
- NAG-1 Induction (mRNA) Fold (NAG-1 [1]): 0.9 Fold
- Apoptosis (PI Staining), relative apoptosis ratio over vehicle (HCT-116 cells): 1.029 ± 0.109

SMILES: CN1C(C(=O)Nc2ccccn2)=C(O)c2ccccc2S1(=O)=O [Piroxicam]
- NAG-1 Induction (mRNA) Fold (NAG-1 [1]): 2.5 Fold
- Apoptosis (PI Staining), relative apoptosis ratio over vehicle (HCT-116 cells): 1.9 ± 0.145

SMILES: O=C([O-])c1ccccc1O.[Na+] [Sodium Salicylate]
- NAG-1 Induction (mRNA) Fold (NAG-1 [1]): 3.0 Fold
- Apoptosis (PI Staining), relative apoptosis ratio over vehicle (HCT-116 cells): 1.8 ± 0.252

SMILES: CSc1ccc(/C=C2/C(C)=C(CC(=O)O)c3cc(F)ccc32)cc1 [Sulindac Sulfide]
- NAG-1 Induction (mRNA) Fold (NAG-1 [1]): 4.6 Fold
- Apoptosis (PI Staining), relative apoptosis ratio over vehicle (HCT-116 cells): 4.3 ± 0.737

SMILES: CC1=C(CC(=O)O)c2cc(F)ccc2/C1=C\c1ccc(S(C)(=O)=O)cc1 [Sulindac Sulfone]
- NAG-1 Induction (mRNA) Fold (NAG-1 [1]): 1.3 Fold
- Apoptosis (PI Staining), relative apoptosis ratio over vehicle (HCT-116 cells): 1.6 ± 0.043

SMILES: CC1=C(CC(=O)O)c2cc(F)ccc2/C1=C\c1ccc([S+](C)[O-])cc1 (stereo not shown) [Sulmdac, Sulindac]
- NAG-1 Induction (mRNA) Fold (NAG-1 [1]): 1.5 Fold
- NAG-1 expression induction (NAG-1 [1]): did not induce NAG-1 expression
- Apoptosis (PI Staining), relative apoptosis ratio over vehicle (HCT-116 cells): 1.1 ± 0.173
- Induction of luciferase reporter activity (2021 bp NAG-1 promoter) (NAG-1 promoter): did not increase luciferase activity

SMILES: Cc1c(C)c2c(c(C)c1O)CCC(C)(COc1ccc(CC3SC(=O)NC3=O)cc1)O2 (stereo not shown) [TGZ, Troglitazone]
- Induction of NAG-1 gene expression (NAG-1 [1]; HCT-116, 5 μM): 3 fold
- Earliest time at which increase in NAG-1 mRNA was observed (NAG-1 [1]; HCT-116, 5 μM TGZ): 3 h
- Time at which increase in NAG-1 protein was observed (NAG-1 [6]): 6 h
- Earliest time at which apoptosis was observed (HCT-116 cells; HCT-116, presence of serum, TGZ 5 μM): 12 h
- Time point at which G1 arrest was seen (HCT-116 cells; HCT-116, TGZ 5 μM): 12 h
- Induction of luciferase reporter activity (2021 bp NAG-1 promoter) (NAG-1 promoter): 3 fold

From patent publication US7141661B2, “Non-steroidal anti-inflammatory drug activated gene with anti-tumorigenic properties” (The United States of America as represented by the …, priority 2000, dated 2006)
